Assay results taken from patent US9845313B2, “Cycloalkane derivatives” (Daiichi Sankyo Company, Limited, priority 2012, dated 2017).

What was measured:
[1] = biological target: hNav1.7 (Homo sapiens (Human), UniProt Q15858); assay: Electrophysiological evaluation, automated patch clamp IonWorks Quattro, hNav 1.7/β1/β2 HEK293A cells; format: cell-based; conditions: response caused by the second depolarization pulse (pre-pulse potential set to V1/2); HEK293A hNav 1.7/β1/β2 cells; Population Patch Clamp
[2] = system: patients of painful diabetic neuropathy; conditions: cited from earlier work

Sequence of hNav1.7 (Q15858 whole entry): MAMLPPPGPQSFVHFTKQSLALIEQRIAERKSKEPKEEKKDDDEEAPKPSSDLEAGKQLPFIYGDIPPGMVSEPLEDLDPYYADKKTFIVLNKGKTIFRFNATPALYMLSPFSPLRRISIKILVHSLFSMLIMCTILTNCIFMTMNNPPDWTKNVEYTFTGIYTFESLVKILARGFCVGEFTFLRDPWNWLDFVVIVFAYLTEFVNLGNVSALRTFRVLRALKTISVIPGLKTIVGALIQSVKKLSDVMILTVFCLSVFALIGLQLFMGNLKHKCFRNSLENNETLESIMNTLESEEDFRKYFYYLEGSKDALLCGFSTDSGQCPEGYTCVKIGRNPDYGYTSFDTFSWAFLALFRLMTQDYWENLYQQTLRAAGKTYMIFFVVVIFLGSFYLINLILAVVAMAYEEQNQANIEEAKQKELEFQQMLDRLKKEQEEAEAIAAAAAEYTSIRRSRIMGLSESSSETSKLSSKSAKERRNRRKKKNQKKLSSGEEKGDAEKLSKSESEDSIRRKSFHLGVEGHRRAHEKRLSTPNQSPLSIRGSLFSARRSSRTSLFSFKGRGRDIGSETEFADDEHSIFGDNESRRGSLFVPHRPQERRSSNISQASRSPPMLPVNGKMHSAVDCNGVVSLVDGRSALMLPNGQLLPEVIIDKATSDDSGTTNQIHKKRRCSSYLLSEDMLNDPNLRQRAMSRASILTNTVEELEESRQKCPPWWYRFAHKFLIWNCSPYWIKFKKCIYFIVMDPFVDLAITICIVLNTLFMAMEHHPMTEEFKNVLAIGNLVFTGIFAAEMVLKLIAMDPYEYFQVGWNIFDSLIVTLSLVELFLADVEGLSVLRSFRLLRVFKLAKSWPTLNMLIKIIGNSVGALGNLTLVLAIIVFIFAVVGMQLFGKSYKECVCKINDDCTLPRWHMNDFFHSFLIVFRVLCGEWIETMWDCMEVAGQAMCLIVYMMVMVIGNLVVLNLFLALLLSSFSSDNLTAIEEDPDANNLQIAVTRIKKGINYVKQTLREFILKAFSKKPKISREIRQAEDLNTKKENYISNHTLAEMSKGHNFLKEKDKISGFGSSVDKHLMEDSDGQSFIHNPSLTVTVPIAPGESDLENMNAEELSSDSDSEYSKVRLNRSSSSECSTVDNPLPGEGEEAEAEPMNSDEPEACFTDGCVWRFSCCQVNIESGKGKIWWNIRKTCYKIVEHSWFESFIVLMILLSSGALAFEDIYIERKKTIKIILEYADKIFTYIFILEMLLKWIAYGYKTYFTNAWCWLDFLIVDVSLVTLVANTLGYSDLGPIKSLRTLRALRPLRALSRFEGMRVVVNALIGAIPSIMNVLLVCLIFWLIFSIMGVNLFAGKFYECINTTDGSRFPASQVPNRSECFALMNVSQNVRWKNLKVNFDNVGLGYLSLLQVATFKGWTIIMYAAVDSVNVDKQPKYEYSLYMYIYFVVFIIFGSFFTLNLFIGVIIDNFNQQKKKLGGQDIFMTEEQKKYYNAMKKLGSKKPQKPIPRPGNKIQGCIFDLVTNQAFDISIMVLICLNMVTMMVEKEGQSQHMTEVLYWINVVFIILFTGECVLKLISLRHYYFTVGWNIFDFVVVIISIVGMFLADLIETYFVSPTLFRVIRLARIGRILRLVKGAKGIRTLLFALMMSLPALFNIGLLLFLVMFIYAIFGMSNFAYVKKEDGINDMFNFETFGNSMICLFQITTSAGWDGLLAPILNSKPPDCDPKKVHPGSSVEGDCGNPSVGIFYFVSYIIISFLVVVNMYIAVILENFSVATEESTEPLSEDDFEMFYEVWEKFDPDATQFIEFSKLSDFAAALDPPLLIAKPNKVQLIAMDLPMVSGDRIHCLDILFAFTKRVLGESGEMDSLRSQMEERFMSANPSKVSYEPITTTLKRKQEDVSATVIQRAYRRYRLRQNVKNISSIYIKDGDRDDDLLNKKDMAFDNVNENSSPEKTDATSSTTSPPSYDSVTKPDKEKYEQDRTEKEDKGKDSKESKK
Sequence of hNav1.7 (Q07699 19-218 partner): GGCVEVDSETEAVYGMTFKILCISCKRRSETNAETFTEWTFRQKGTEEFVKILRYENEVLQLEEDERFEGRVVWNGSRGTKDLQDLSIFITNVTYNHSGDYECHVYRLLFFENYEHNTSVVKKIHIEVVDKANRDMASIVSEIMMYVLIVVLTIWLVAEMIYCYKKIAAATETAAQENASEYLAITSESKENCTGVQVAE
Sequence of hNav1.7 (O60939 30-215 partner): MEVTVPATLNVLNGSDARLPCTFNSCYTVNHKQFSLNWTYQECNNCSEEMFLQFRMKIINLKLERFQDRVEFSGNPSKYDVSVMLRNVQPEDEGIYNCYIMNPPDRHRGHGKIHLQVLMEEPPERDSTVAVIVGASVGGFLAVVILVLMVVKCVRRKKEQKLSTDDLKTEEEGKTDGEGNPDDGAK

Row | SMILES | IC50 [1] | effective therapeutic ratio based on self-evaluation of patients [2]
1 | O=S(=O)(Nc1ncns1)c1cc(F)c(O[C@@H]2CCCC[C@@H]2c2ccccc2)cc1F (relative stereo) [Example 3, 2,5-Difluoro-4-{[(1R*,2R*)-2-phenylcyclohexyl]oxy}-N-(1,2,4-thiadiazol-5-yl)benzenesulfonamide] | 270 nM | –
2 | CC(C)C[C@H](CN)CC(=O)O [pregabalin] | – | approximately 50%
